PMC8245654, “Extended JAZ degron sequence for plant hormone binding in jasmonate co-receptor of tomato SlCOI1-SlJAZ” (Scientific Reports, 2021)
Read-outs that look alike come from different tables or passages of the source.

Tests used:
SlCOI1-SlJAZ10 = test: AlphaScreen assay, GST-SlCOI1 and Fl-SlJAZP10; assay type: binding, Solanum lycopersicum; conditions: calculated from AlphaScreen; 5 nM SlCOI1, 10 nM Fl-SlJAZP10
Description: (§1) AlphaScreen experiments were performed at 25 °C in the incubation buffer. 15 μL of the reaction mixture containing the incubation buffer, 5 nM SlCOI1, 10 nM Fl-SlJAZPs and various concentrations of COR or JA-Ile was added to a 1/2 Area AlphaPlate-96 (PerkinElmer), and then incubated for 1 h at 4 °C. Then, 10 μL of a detection mixture containing incubation buffer, 0.1 μL of FITC-coated donor beads, 0.1 μL of GST-coated acceptor beads was added to each well. Finally, the mixture was incubated for 12 h and the luminescence signals were detected using the Envision 2105 Multimode Plate Reader (PerkinElmer). The experiment was repeated three times, and the data are presented as average values with standard deviation. To clarify the difference in the affinity of the ligands with each COI1/JAZ co-receptor, the results of the AlphaScreen assay are shown with the normalized signal intensity change (Figs. 3, 4, and Supplementary Fig. S9) along with the raw signal intensity (Supplementary Figs. S8, S10, and S13)[40].

SlCOI1-SlJAZ5 = biological target: T1, SlCOI1-SlJAZ5 (Solanum lycopersicum, UniProt A0A3Q7FUH8+Q6TDU2); test: AlphaScreen assay, GST-SlCOI1 and Fl-SlJAZP5; assay type: binding; conditions: calculated from AlphaScreen, 5 nM SlCOI1, 10 nM Fl-SlJAZP5
T1 sequence (Q6TDU2 1-603): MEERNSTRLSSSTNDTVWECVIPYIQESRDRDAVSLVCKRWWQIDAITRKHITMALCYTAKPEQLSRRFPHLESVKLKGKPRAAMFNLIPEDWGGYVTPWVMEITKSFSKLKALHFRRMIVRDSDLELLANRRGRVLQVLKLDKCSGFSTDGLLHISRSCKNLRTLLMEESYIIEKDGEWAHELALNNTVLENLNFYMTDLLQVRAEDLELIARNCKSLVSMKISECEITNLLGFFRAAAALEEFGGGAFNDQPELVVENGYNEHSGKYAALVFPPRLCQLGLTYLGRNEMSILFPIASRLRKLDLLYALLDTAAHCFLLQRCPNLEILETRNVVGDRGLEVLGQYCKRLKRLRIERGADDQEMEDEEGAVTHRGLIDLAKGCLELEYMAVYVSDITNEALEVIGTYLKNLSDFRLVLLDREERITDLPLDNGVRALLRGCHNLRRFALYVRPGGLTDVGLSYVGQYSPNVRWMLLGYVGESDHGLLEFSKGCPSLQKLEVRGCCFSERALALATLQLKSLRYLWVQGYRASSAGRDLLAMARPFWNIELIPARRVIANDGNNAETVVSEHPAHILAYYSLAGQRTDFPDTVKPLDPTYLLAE
T1 sequence (A0A3Q7FUH8 327-353): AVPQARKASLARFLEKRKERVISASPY
T1 sequence (Q39255 1-160 partner): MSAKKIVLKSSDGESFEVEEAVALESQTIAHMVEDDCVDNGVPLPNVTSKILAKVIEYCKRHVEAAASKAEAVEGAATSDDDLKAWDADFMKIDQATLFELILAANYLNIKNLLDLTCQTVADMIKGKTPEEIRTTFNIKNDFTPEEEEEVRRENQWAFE
Description: as §1

SlCOI1-SlJAZ8 = test: AlphaScreen assay, GST-SlCOI1 and Fl-SlJAZP8; assay type: binding, Solanum lycopersicum; conditions: calculated from AlphaScreen; 5 nM SlCOI1, 10 nM Fl-SlJAZP8
Description: as §1

SlCOI1-SlJAZ9 = test: AlphaScreen assay, GST-SlCOI1 and Fl-SlJAZP9; assay type: binding, Solanum lycopersicum; conditions: calculated from AlphaScreen; 5 nM SlCOI1, 10 nM Fl-SlJAZP9
Description: as §1

SlCOI1-SlJAZ6 = test: AlphaScreen assay, GST-SlCOI1 and Fl-SlJAZP6; assay type: binding, Solanum lycopersicum; conditions: calculated from AlphaScreen; 5 nM SlCOI1, 10 nM Fl-SlJAZP6
Description: as §1

SlCOI1-SlJAZ7 = biological target: T2, SlCOI1-SlJAZ7 (Solanum lycopersicum, UniProt Q6TDU2+Q9M723); test: AlphaScreen assay, GST-SlCOI1 and Fl-SlJAZP7; assay type: binding
T2 sequence (Q6TDU2 1-603): T1 sequence (Q6TDU2 1-603)
T2 sequence (Q9M723 174-200): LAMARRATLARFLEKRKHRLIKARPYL
T2 sequence (Q39255 1-160 partner): T1 sequence (Q39255 1-160 partner)
Description: as §1

SlCOI1-SlJAZ13 = biological target: T3, SlCOI1-SlJAZ13 (Solanum lycopersicum, UniProt A0A3Q7EQ67+Q6TDU2); test: AlphaScreen assay, GST-SlCOI1 and Fl-SlJAZP13; assay type: binding; conditions: calculated from AlphaScreen, 5 nM SlCOI1, 10 nM Fl-SlJAZP13
T3 sequence (Q6TDU2 1-603): T1 sequence (Q6TDU2 1-603)
T3 sequence (A0A3Q7EQ67 85-111): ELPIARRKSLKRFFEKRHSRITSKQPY
T3 sequence (Q39255 1-160 partner): T1 sequence (Q39255 1-160 partner)
Description: as §1

SlCOI1-SlJAZ11 = test: AlphaScreen assay, GST-SlCOI1 and Fl-SlJAZP11; assay type: binding, Solanum lycopersicum; conditions: calculated from AlphaScreen; 5 nM SlCOI1, 10 nM Fl-SlJAZP11
Description: as §1

SlCOI1-SlJAZ1 = biological target: T4, SlCOI1-SlJAZ1 (Solanum lycopersicum, UniProt A0A3Q7H988+Q6TDU2); test: AlphaScreen assay, GST-SlCOI1 and Fl-SlJAZP1; assay type: binding; conditions: calculated from AlphaScreen, 5 nM SlCOI1, 10 nM Fl-SlJAZP1
T4 sequence (Q6TDU2 1-603): T1 sequence (Q6TDU2 1-603)
T4 sequence (A0A3Q7H988 159-185): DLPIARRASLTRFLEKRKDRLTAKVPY
T4 sequence (Q39255 1-160 partner): T1 sequence (Q39255 1-160 partner)
Description: as §1

[1] = tested on: GST-SlCOI1 with FLAG-SlJAZ9-11; test: Pull down assay of GST-SlCOI1 with FLAG-SlJAZ (full-length proteins); assay type: binding, Solanum lycopersicum; conditions: ligand 100 nM; full-length FLAG-SlJAZ9-11; immunoblotting
Description: (§2) SlJAZ genes were cloned from the tomato cultivar Micro-Tom and their FLAG-tag-fused proteins FLAG-SlJAZ1-11/13 expressed using the wheat germ-derived cell-free protein expression system (Supplementary Fig. S1). GST-fused SlCOI1 (GST-SlCOI1) was also expressed in Sf9 cultured insect cells (Supplementary Fig. S2). Arabidopsis ASK protein was co-expressed to improve the stability of SlCOI1[26].
(§3) Figure 2 (a) Pull down assay of GST-SlCOI1 with FLAG-SlJAZ (full-length proteins) in the presence of JA-Ile (100 nM). GST-SlCOI1 bound to FLAG-SlJAZ proteins was pulled down with anti-FLAG antibody and Protein G magnetic beads, and analyzed by immunoblotting (top: anti-GST-HRP conjugate for detection of GST-SlCOI1, bottom: anti-FLAG antibody and anti mouse-IgG HRP conjugate for detection of FLAG-SlJAZs). *or **show the bands derived from heavy chain or light chain of the anti-FLAG antibody. (b) Pull down assay of GST-SlCOI1 with Fl-SlJAZPs in the presence of JA-Ile (100 nM). GST-SlCOI1 bound to Fl-SlJAZPs was pulled down with anti-fluorescein antibody and Protein G magnetic beads, and analyzed by immunoblotting (anti-GST-HRP conjugate for detection of GST-SlCOI1).
(§4) All chemicals (JA-Ile or COR) were dissolved in ethanol to generate 10 mM stock solutions and diluted with 20% ethanol aq. for preparation of 100 μM stock solutions. For the pull-down experiments using full-length SlJAZ proteins, purified GST-COI1 (5 nM), FLAG-tagged SlJAZ (each 20 µL of the translation mixture), and the ligands (COR or JA-Ile) in 350 µL of incubation buffer (50 mM Tris–HCl buffer, pH 7.8, 100 mM NaCl, 20 mM 2-mercaptoethanol, 10% glycerol, 0.1% Tween20, 100 nM inositol-1,2,4,5,6-pentakisphosphate (IP5)) were combined with anti-FLAG antibody (0.2 µL, Sigma Aldrich, F1804, clone M2), and incubated for 10–15 h at 4 °C with rotation. After incubation, the samples were combined with SureBeads Protein G (10 µL in 50% incubation buffer slurry, Bio-Rad). After 3 h incubation at 4 °C with rotation, the samples were washed three times with 350 µL of fresh incubation buffer. The washed beads were resuspended in 35 µL of SDS-PAGE loading buffer containing dithiothreitol (DTT, 100 mM). After heating for 10 min at 60 °C, the samples were subjected to SDS-PAGE and analyzed by western blotting. The bound GST-COI1 protein was detected using anti-GST HRP conjugate (RPN1236, GE Healthcare, 5000-fold dilution in blocking buffer (Nakalai tesque, Inc., Japan). FLAG-JAZ proteins were detected using anti-FLAG antibody (1000-fold dilution in blocking buffer) and anti-mouse IgG-HRP antibody (Southern Biotech. Inc., Birmingham, US, 1031-05, 20,000-fold dilution in blocking buffer). Three independent replicates using proteins purified at different times were done with similar results (Supplementary Fig. S3).

[2] = tested on: GST-SlCOI1 with FLAG-SlJAZ4/13; test: as above; assay type: binding, Solanum lycopersicum; conditions: ligand 100 nM; full-length FLAG-SlJAZ4/13; immunoblotting
Description: as §2, §3, §4

[3] = tested on: GST-SlCOI1 with FLAG-SlJAZ1-3/5–8; test: as above; assay type: binding, Solanum lycopersicum; conditions: ligand 100 nM; full-length FLAG-SlJAZ1-3/5–8; immunoblotting
Description: as §2, §3, §4

[4] = biological target: GST-SlCOI1 and SlJAZP1-4DOD; test: AlphaScreen assay, GST-SlCOI1 and swapped SlJAZP1-4DOD; assay type: binding, Solanum lycopersicum; conditions: swapped peptide: DOD sequence of SlJAZP1 swapped with that of SlJAZP4
Description: To examine the effect of the DOD sequence, we studied SlJAZP1-4/13 which incorporate the same JAZ degron sequence LPIARR and alternative DOD sequence XSLX. […] We prepared SlJAZP1-3DOD and SlJAZP1-4DOD, wherein the DOD sequence of SlJAZP1 was swapped with those of SlJAZP3 and SlJAZP4, respectively (Fig. 4a, and Supplementary Figs. S11–12). […] Next, we examined whether the DOD sequence also affected the affinity of SlJAZP5/6/8 with another JAZ degron sequence VPQARK. […] We prepared DOD swapped peptides SlJAZP5-2DOD (ASLA of SlJAZ5 to NSLT of SlJAZ2) and SlJAZP2-5DOD (NSLT of SlJAZ2 to ASLA of SlJAZ5) (Fig. 4a, and Supplementary Figs. S11–12).
as §1, with “To clarify the difference in the affinity of the ligands with each COI1/JAZ co-receptor, the results of the AlphaScreen assay are shown with the normalized signal intensity change (Figs. 3, 4, and Supplementary Fig. S9) along with the raw signal intensity (Supplementary Figs. S8, S10, and S13)[40].” left out

CC[C@H]1C=C(C(=O)N[C@@]2(C(=O)O)C[C@@H]2CC)[C@H]2CCC(=O)[C@H]2C1 [COR, coronatine]
Kd (SlCOI1-SlJAZ10): 89.7 nM | Kd (SlCOI1-SlJAZ5): 0.64 nM | Kd (SlCOI1-SlJAZ8): 0.39 nM | Kd (SlCOI1-SlJAZ9): 44.7 nM | Kd (SlCOI1-SlJAZ6): 0.76 nM | Kd (SlCOI1-SlJAZ7): 0.23 nM | Kd (SlCOI1-SlJAZ13): 80.7 nM | Kd (SlCOI1-SlJAZ11): 62.4 nM | Kd (SlCOI1-SlJAZ1): 4.9 nM | pull-down of GST-SlCOI1 [1]: Identical results | pull-down of GST-SlCOI1 [2]: Identical results | pull-down of GST-SlCOI1 [3]: Identical results

CC/C=C\C[C@@H]1C(=O)CC[C@@H]1CC(=O)N[C@H](C(=O)O)[C@@H](C)CC [JA-Ile, (+)-7-iso-Jasmonoyl-L-isoleucine]
Kd (SlCOI1-SlJAZ10): 402 nM | Kd (SlCOI1-SlJAZ5; read-out: Kd): 4.2 nM | Kd (SlCOI1-SlJAZ8): 2.2 nM | Kd (SlCOI1-SlJAZ9): 1110 nM | Kd (SlCOI1-SlJAZ6): 4.1 nM | Kd [4]: 46.9 nM | Kd (SlCOI1-SlJAZ7; calculated from AlphaScreen, 5 nM SlCOI1, 10 nM Fl-SlJAZP7, read-out: Kd): 16.2 nM | Kd (SlCOI1-SlJAZ13; read-out: Kd): 637 nM | Kd (SlCOI1-SlJAZ11): 430 nM | Kd (SlCOI1-SlJAZ1; read-out: Kd): 9.2 nM | pull-down of GST-SlCOI1 [1]: not FLAG-SlJAZ9-11 pulled-down GST-SlCOI1 | pull-down of GST-SlCOI1 [2]: could not pull-down the GST-SlCOI1 | pull-down of GST-SlCOI1 [3]: pulled-down GST-SlCOI1
